# Measurements published in patent US20090233999A1, “COMPOSITIONS AND THERAPEUTIC METHODS INVOLVING ISOFLAVONES AND ANALOGUES THEREOF” (NOVOGEN RESEARCH PTY LTD, priority 1999, published 2009).
# Tested on: TNFα
# Experiment: UVB psoriasis model: cutaneous TNFα by ELISA
# Type: in vivo, mouse
# Conditions: for suppression of UVB-induced TNF-α level: 40 μM topical
# Text: Inbred, 6-8 weeks of age female C57/BL6, C3H/HeN and Skh:hr-1 (hairless) mice were fed normal stock rodent rations and tap water ad libitum. One day prior to UVB irradiation, the dorsal hair of C57/BL6 and C3H/HeN mice was removed by clipping. A single UVB tube (Phillips TL-40W/12 RS, Eindhoven, The Netherlands) emitting a spectrum of 280-365 nm with a peak emission at 310 nm, was used as the light source for the experiments. The radiation was filtered through a sheet of 0.125 mm cellulose acetate (Grafix Plastics, OH, USA) to block wavelengths below 290 nm. Irradiance was measured with an IL 1500 radiometer (International Light Inc. Newburyport, Mass.) with a UVB detector (SEE 240/UVB) calibrated to the spectral output, and recorded as 1.71×10-4 W/cm2. Groups of three female C57/BL6 and C3H/HeN mice were exposed unrestrained in their cages to 7.24 kJ/m2 UVB radiation equal to 3× the minimal erythemal dose (MED) in these haired mice (fur clipped), an exposure of approximately 70 min. Control mice were clipped of fur in the same manner but were not exposed to UVB irradiation. Groups of 3 Skh:hr-1 mice received 3.59 kJ/m2 of UVB, which is equal to 3×MED on hairless mouse skin. Temperature under the radiation source was stabilised during the exposures with surrounding curtains and an electric fan.
# Cpd. 18 was dissolved as a 40 mM stock solution in DMSO, then diluted in a vehicle of propylene glycol-ethanol-water 1:2:1 to provide solutions of 0, 5, 10, 20 and 40 μM with […]. The vehicle control base lotion contained 0.001% DMSO. An aliquot of 100 μL of lotion was applied to the dorsum of three mice immediately, 1 h and 2 h after UVB irradiation for 24 h time point measurements, or once daily immediately after and for up to the next four days following irradiation, for later time points, and was spread evenly using a micropipette. Control mice were restrained in the same manner but were not exposed to UVB irradiation.
# To determine the effect of UVB irradiation on cutaneous TNFα expression, groups of three C57/BL6 and C3H/HeN mice were euthanased before and at several time points up to 72 h following UVB irradiation, with and without topical treatment with 20 μM Cpd. 18, and the mid-dorsal skin was excised. […] Colour development was stopped after 30 min with 50 μL of 1M H2SO4, and quantitated spectrophotometrically at 405 nm. […]
structure (smiles),measurement,setting,value
"COc1ccc(C2=Cc3ccc(O)cc3OC2)cc1OC [Cpd. 18, 7-Hydroxy-3′,4′-dimethoxyisoflav-3-ene]",suppression of UVB-induced TNF-α level,"C3H/HeN, 3 h post-UVB",40%
same,suppression of UVB-induced TNF-α level,"C57/BL6, 3 h post-UVB",45%
same,UVB-elevated TNFα levels,"5-40 μM, dose-dependent, each mouse strain, 3 h post-UVB",significantly reduced
same,"TNFα expression, lotion alone",without UVB,no effect
